Here are results for five molecules from patent publication US20260077065A1, “Compositions and Methods for Assessing Kinase Activity” (The Board of Trustees of the Leland Stanford Junior …, priority 2022, published 2026).

For series [1] the following is noted: previously characterized; cited from earlier work.
Series [2] concerns ERK. The series is described as follows: Imaging of ERK inhibition in intracranially implanted U87-EGFRvIII cells. The class given is in vivo, mice. On the procedure:
Tested next was whether KiMBI can report ERK inhibition in the brain tumor xenograft model.
U87-EGFRvIII xenografts are known to disrupt the BBB^16. When the BBB-impermeant GSK1120212 (1 mg/kg i.p.) was administered to the same group of mice, a positive response was also observed, with ˜150% higher tKiMBI signal.
(§1) General procedures of kinase inhibitor injection and in vivo bioluminescence imaging. […] For KiMBI (NanoLuc-based bioluminescent reporter) imaging, mice were i.p. injected with either 1.3 μmol (0.56 mg) of fluorofurimazine (FFz) or cephalofurimazine (CFz) in 150 μl of injectable formulation containing 6 mg poloxamer-407 (P-407) in Dulbecco Phosphate Buffered Saline (DPBS, without Ca^2+ or Mg^2+, no. 21-031-CV, Corning) for imaging. Immediately after luciferin administration, mice were anesthetized using isoflurane, and images were acquired in the Ami HT optical imaging system every 1 min for 10 min, with an air flow containing 1-2% isoflurane for stable anesthesia. Imager settings were: emission filter, open; field of view, 25 cm; f-stop 1.2; binning, 2×2 and exposure time, 30 s. Images were analyzed in Aura 4.0 in vivo imaging software. The above-mentioned conditions and settings were for most in vivo studies unless otherwise stated in the specific procedures.
Molecular imaging of ERK inhibition in intracranially implanted cells. The stereotaxic injection on the 7- to 9-week-old male J:NU mice were similar to the afore-mentioned AAV infection surgery. A Hamilton syringe with a 26-gauge needle was inserted 0.62 mm […] and 1.75 mm lateral to the bregma to a depth of 3.5 mm, and after a 2 min wait the needle was pulled back 0.5 mm to allow space for the cell suspension. Following this, 3×10^4 KiMBI-expressing U87-EGFRvIII or LN-229 stable cells in 1.5 μl of PBS were injected at an injection speed of 0.3 μL/min using the syringe pump. To visualize ERK inhibition in U87-EGFRvIII cell implants, 5 days after cell implantation, tumor-bearing mice were i.p. injected with CFz (0.4 μmol, with 1.8 mg P-407) for imaging. […]

The subject of series [3] is ERK. The series is described as follows: U87-EGFRvIII stable tKiMBI/tKiMBImut reporter cell lines, bioluminescence. The class given is cell-based, human. The note with it: for induction of bioluminescence: tKiMBI-expressing cells; for effect on bioluminescence of control cell lines: tKiMBImut-expressing cells. The procedure:
Next, the ability of KiMBIs to report ERK kinase inhibition in human tumor xenografts in mice was tested. U87-EGFRvIII cells were transduced with lentiviruses expressing tKiMBI-T2A-AkaLuc, where AkaLuc allows kinase-independent tracking of tumor location and size (FIG. 6a). Transduced cells were sorted by fluorescence-activated cell sorting (FACS) and selected by antibiotics to generate polyclonal stable cell lines.
Generation of KiMBI-expressing stable tumor cell lines. U87-EGFRvIII and LN229 cells were lentiviral transduced with pLL3.7m-CMV-KiMBI-T2A-AkaLuc-P2A-Blasticidin. Then, 72 h after transfection, cells were dissociated with trypsin and resuspended in DMEM and then changed to PBS. Suspended cells were sorted for the population with medium fluorescence level (20-40%) on a fluorescence-activated cell sorter (FACS), the FACSJazz (BD Biosciences) at Stanford Shared FACS Facility. After cell sorting, the KiMBI-expressing cells were maintained and passaged in corresponding culture medium supplemented with blasticidin (6 μg/mL for both cell lines) to select for stable polyclonal cell lines. Flow cytometry data were analyzed on FlowJo software. The stable KiMBI expression was validated by examination of tdTomato fluorescence in tKiMBI (and its variants) using an EVOS FL Autoimaging system (Thermo Scientific).
(§2) In vitro cell-based bioluminescent assay. Cells were seeded into 96-well Lumitrac plate (Greiner Bio-One) at a density of 1.5-2×10^4 cells per well. After 24 h, cells were transiently transfected with KiMBI-expressing plasmids (5-10 ng per well) with or without caMEK-expressing plasmids (50 ng per well, empty pcDNA3.1 as negative control to keep total transfected DNA amount consistent) using lipofectamine 3000 (Invitrogen) following manufacturer's instructions. For the stable polyclonal KiMBI-expressing cell liens, this lipofection step was skipped. At 24 h after transfection, the cells were treated with drugs at desired concentration in opti-MEM reduced-serum medium (Thermo Fisher) for 1-1.5 hours. Then, for assaying luminescence, Nano-Glo live cell assay system (Promega) was used following manufacturer's instructions. Time-lapse live luminescence was recorded on Safire-2 microplate reader (Tecan) with 100 ms integration and one read per min for 20 min. Luminescence spectrum was measured on a Varioskan LUX multimode microplate reader (Thermo Scientific) using the spectral scanning protocol with 1 s integration for each wavelength at 400-680 nm (1 nm per data point).

Series [4] relates to ERK. Conditions: mouse, in vivo; cited from earlier work.
The subject of series [5] is Akt. The series is described as follows: Molecular imaging of Akt inhibition in subcutaneous U87-EGFRvIII tumor model. The class given is in vivo. The note with it: same mice after 2-day interval. The text has this:
Evaluated next was the capacity of Akt oKiMBI to report Akt inhibition in a subcutaneous tumor model. Engineered U87-EGFRvIII cells that stably express oKiMBI or oKiMBImut were subcutaneously injected at different sites in J:NU mice.

In series [6] the test system is Akt. The series is described as follows: Akt oKiMBI luminescence in HEK293A (caAkt), U87-EGFRvIII and LNCaP cells. The class given is cell-based, human. Conditions: all cell lines: HEK293A (caAkt), U87-EGFRvIII, LNCaP.
The test system of series [7] is Akt. The series is described as follows: BAR (bioluminescent Akt reporter, FLuc) luminescence in HEK293A (caAkt), U87-EGFRvIII and LNCaP cells. Conditions: all tested cell lines. The class given is cell-based, human.
The test system of series [8] is Akt. The series is described as follows: U87-EGFRvIII cells stably expressing Akt oKiMBI or oKiMBImut, luminescence. The class given is cell-based, human. The text has this: To assess Akt inhibition in human tumor xenografts in mice, either Akt oKiMBI- or oKiMBImut-expressing U87-EGFRvIII stable cell lines were first engineered through lentiviral transduction (FIG. 17a). Fluorescence-activated cell sorting (FACS) was subsequently employed to sort the transduced cells, followed by antibiotics selection to establish polyclonal stable cell lines.

For series [9], the system named is ERK. The series is described as follows: ERK KiMBI cell-based bioluminescent assay, HEK293A cells co-transfected with caMEK.
Description: To develop a luciferase reporter protein whose activity can be activated by ERK inhibition, it was hypothesized that NanoLuc luciferase catalytic activity could be modulated through large ERK-induced conformational changes. Created and tested were fusion proteins of various topologies (FIG. 2a) comprising the NanoLuc NanoBiT fragments, an ERK substrate peptide from Cdc25C^7, and a proline-directed WW phospho-binding domain (WW)^8 from Pin1. In particular, an arrangement was postulated in which binding of phosphorylated substrate (pSub) to WW would force the SmBiT fragment to adopt an unfavorable conformation for LgBiT complementation, would show low luminescence with active ERK and high luminescence with inhibited ERK (FIG. 2b). The KiMBI candidates were screened by co-transfection into HEK293A cells with a constitutively active MEK (caMEK) followed by application of the ERK inhibitor Vx-Ile.
as §2

For series [10], the system named is ERK. The series is described as follows: Molecular imaging of ERK inhibition in KiMBI-encoded AAV infected mouse brain. The class given is in vivo. The procedure: Using CFz, tested was whether tKiMBI could report the BBB-permeance of ERK pathway inhibitors in living mice. tKiMBI-T2A-caMEK or the negative control tKiMBImut-T2A-caMEK were expressed in mouse striatum by AAV transduction (FIG. 9a).
as §1
Molecular imaging of ERK inhibition in KIMBI-encoded AAV infected mouse brain. […]

Series [11] relates to ERK. The series is described as follows: Imaging of ERK inhibition in intracranially implanted LN-229 cells. The note with it: one week after implantation. The class given is in vivo, mice.
Description: 3×10^4 LN-229 cells expressing tKiMBI or tKiMBImut were implanted into the striatum, and KiMBI assays were performed one week later.
Molecular imaging of ERK inhibition in intracranially implanted cells. The stereotaxic injection on the 7- to 9-week-old male J:NU mice were similar to the afore-mentioned AAV infection surgery. A Hamilton syringe with a 26-gauge needle was inserted 0.62 mm dorsal and 1.75 mm lateral to the bregma to a depth of 3.5 mm, and after a 2 min wait the needle was pulled back 0.5 mm to allow space for the cell suspension. […]
The subject of series [12] is ERK. The series is described as follows: Molecular imaging of ERK inhibition in subcutaneous U87-EGFRvIII tumor model. The class given is in vivo, mice. The note with it: 2 h after injection, FFz imaging.
Description: The ability of tKiMBI to report ERK pathway inhibition in tumors in vivo was assessed. Mice were injected subcutaneously with 10^6 tKiMBI-expressing cells on one side and, to control for differences in substrate delivery between injections, tKiMBImut-expressing reporter cells on the other side (FIG. 7a).
Molecular imaging of ERK inhibition in subcutaneously implanted cells. […]
Series [13] deals with ERK. The series is described as follows: Time-lapse imaging of ERK inhibition in intracranially implanted U87-EGFRvIII cells. The class given is in vivo, mice. The procedure: A non-invasive method with the potential for longitudinal studying of drug pharmacokinetics and pharmacodynamics should allow rapid dose and schedule optimization for drug development.
as §1
Time-lapse imaging of ERK inhibition in intracranially implanted cells. One week after implantation of 10^5 KiMBI-expressing U87-EGFRvIII stable cells, the tumor-bearing mice were i.p. injected with CFz (0.2 μmol, with 0.8 mg P-407) for the initial imaging to establish the signal baseline before drug administration.

As for `CC(=O)Nc1cccc(-n2c(=O)n(C3CC3)c(=O)c3c(Nc4ccc(I)cc4F)n(C)c(=O)c(C)c32)c1` [GSK1120212, trametinib], in series [1], the BBB permeation entry is reported as “poor BBB permeation”. The “higher tKiMBI signal” value with ERK [2] (1 mg/kg i.p., same group of mice) was ~150%. Also, the induction of bioluminescence in the series on ERK [3] is on record as ~4 fold. Besides, the “drug level and ERK inhibition in brains of drug-injected mice” value in the series with ERK [4] was “no detectable GSK1120212 or ERK inhibition”.

`NC(=O)c1cccc2c(N[C@H](CN3CCC3)c3ccc(Cl)c(C(F)(F)F)c3)ncnc12` [M2698]: the “inhibition of the Akt pathway reported by Akt oKiMBI” value in the series with Akt [5] is “effective inhibition of the Akt pathway”. Besides, the “oKiMBI luminescence response to Akt inhibitor” value in the series on Akt [6] is reported as “significant increase in luminescence”. In addition, the “BAR and BARmut response to Akt inhibitor” value in the series with Akt [7] was “miniscule positive responses”. Moreover, the “signal response of oKiMBImut cells to drug treatment” value with Akt [8] (cells expressing oKiMBImut) was “did not exhibit any signal increase”. For the same molecule, the “increase in luminescent signals” value in the series on Akt [8] (cells stably expressing Akt oKiMBI) was ~2.5 fold.

Regarding `O=C(NOC[C@H](O)CO)c1ccc(F)c(F)c1Nc1ccc(I)cc1F` [PD0325901, mirdametinib], the BBB permeation entry in series [1] is recorded as “BBB-permeant”. Further, in the series with ERK [2] (after PD0325901 administration, CFz), the “increase in tKiMBI signal” value is listed as ~200%. Further, in the series on ERK [2] (after PD0325901 administration, control reporter), the “decrease in tKiMBImut signal” value is given as ~10%. The “induction of tKiMBI signal” value in the series with ERK [9] (AAV plasmids caMEK-T2A-tKiMBI (A1) and tKiMBI-T2A-caMEK (A2), both) is reported as “approximately 4 fold”. Also, in the series with ERK [10] (25 mg/kg, CFz imaging, tKiMBI-T2A-caMEK), the “bioluminescence of tKiMBI in brain” value is given as “robustly induced bioluminescence”. The “able to induce a signal increase in KiMBI” value with ERK [10] (AAV-infected mice brain (discussion)) is listed as “able to induce a signal increase”. The “increase in signal from tKiMBI” value with ERK [11] was > 3 fold. Besides, the “increase in brightness of tKiMBI tumor” value with ERK [12] (tKiMBI) came out at 100%. Also, the “increase in brightness of tKiMBImut tumor” value in the series with ERK [12] (tKiMBImut control) was ~10%. Also, in the series with ERK [3], the induction of bioluminescence is on record as ~4 fold and the “effect on bioluminescence of control cell lines” value is “slightly reduced bioluminescence”. In the series on ERK [13] (25 mg/kg i.p., tKiMBI), the “return of signal to baseline” value is given as “backed to baseline on the second day”, the “time for bioluminescence signal to rise to plateau” value is given as ≤ 1 h, the “time post-treatment at which signal declined to about half” value is reported as “around 8 hrs” and the “time until which signal remained high” value is reported as “about 4 h”. For the same molecule, the “signal increase in control cells” value with ERK [13] (after 24 h, tKiMBImut control cells) was ~1.4 fold.

As for `O=C(Nc1ccc2[nH]nc(-c3ccncc3)c2c1)[C@@H]1CCN(CC(=O)N2CCN(c3ccc(-c4ncccn4)cc3)CC2)C1` [SCH772984], in the series with ERK [3], the induction of bioluminescence was ~4 fold and the “effect on bioluminescence of control cell lines” value was “slightly reduced bioluminescence”.

On to `Cc1cnc(Nc2ccc(F)cc2Cl)nc1-c1c[nH]c(C(=O)N[C@H](CO)c2cccc(Cl)c2)c1` [Vx-11e], for which the increase in luminescence in the series with ERK [9] (03 topology KiMBI candidate, 1 μM Vx-11e) is reported as ~65%. For the same molecule, the “induction of bKiMBI luminescence by inhibitor” value in the series on ERK [9] (ERK blue KiMBI (WW F25A)) is listed as > 10 fold.
